The record followed here is BindingDB's records for doi:10.1021/jm801583j (Bristol-Myers Squibb, 2009).

The target of this assay is T1, Androgen receptor (Homo sapiens, UniProt P10275).
T1 sequence (P10275 whole entry): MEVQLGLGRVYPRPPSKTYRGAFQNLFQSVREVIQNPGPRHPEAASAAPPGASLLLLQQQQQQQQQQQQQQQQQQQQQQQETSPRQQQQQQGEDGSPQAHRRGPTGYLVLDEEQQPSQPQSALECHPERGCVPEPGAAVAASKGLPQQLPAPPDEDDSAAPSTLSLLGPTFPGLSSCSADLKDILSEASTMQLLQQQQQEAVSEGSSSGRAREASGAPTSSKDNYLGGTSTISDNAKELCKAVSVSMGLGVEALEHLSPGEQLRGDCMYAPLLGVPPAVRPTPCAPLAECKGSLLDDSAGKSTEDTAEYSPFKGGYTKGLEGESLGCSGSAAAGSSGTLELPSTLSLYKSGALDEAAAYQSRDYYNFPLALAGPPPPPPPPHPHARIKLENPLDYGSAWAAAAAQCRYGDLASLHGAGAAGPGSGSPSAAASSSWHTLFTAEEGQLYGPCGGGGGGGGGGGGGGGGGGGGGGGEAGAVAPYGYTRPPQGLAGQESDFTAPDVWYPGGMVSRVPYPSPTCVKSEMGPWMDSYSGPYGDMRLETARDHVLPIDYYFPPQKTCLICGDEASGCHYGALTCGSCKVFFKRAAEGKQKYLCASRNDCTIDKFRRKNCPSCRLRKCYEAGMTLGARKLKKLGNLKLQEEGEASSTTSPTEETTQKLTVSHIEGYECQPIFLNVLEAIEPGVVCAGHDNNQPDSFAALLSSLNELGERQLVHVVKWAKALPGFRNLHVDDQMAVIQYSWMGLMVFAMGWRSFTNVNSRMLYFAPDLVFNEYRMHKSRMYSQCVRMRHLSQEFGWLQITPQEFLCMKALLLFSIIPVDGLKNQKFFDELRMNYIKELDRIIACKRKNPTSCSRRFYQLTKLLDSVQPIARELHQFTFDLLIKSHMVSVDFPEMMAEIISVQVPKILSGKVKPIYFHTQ
The experiment in a line: Receptor Binding Assay (Ki) and Transactivation Assay (EC50). To be noted: pH 7.6; 22 °C.

Structures are written as SMILES.

Description: Binding assays were conducted by incubating test compound at various concentrations with [3H]DHT with human cancer epithelial breast cell lines MDAMB-45. IC50 value was obtained from dose-response displacement curves. The inhibition constant (Ki) was calculated from IC50 value by the Cheng and Prusoff equation. EC50 value was obtained from functional transactivation assay, which was conducted to assess the potency and efficacy of agonist/antagonist in stably transfected mouse myoblast C2C12 cell line utilizing a luciferase reporter.

Take `Cc1c(/N=C2\O[C@H](C(C)C)[C@@H]3[C@H](O)CCN23)ccc(C#N)c1Cl` [oxazolidin-2-imine, 6g]: the midpoint of the response, the EC50, lay at 0.0037 µM and affinity was put at a Ki of 0.0007 µM.

Take `Cc1c(N2/C(=N/C#N)N3CC[C@H](O)[C@H]3[C@@H]2C)ccc(C#N)c1Cl` [cyanoguanidine, 15]: the EC50 (usually the concentration needed to bring the measured effect to its halfway point) came to 1.11 µM and the affinity corresponds to a Ki of 0.017 µM.
